Data on eight compounds can be found in patent US20230165867A1 (CHENGDU BAIYU PHARMACEUTICAL CO., LTD., priority 2020, published 2023).

Series [1] has as its target T1, TTK kinase (Homo sapiens, UniProt P33981).
T1 construct: purchased Invitrogen PV3792
T1 sequence (P33981 1-857): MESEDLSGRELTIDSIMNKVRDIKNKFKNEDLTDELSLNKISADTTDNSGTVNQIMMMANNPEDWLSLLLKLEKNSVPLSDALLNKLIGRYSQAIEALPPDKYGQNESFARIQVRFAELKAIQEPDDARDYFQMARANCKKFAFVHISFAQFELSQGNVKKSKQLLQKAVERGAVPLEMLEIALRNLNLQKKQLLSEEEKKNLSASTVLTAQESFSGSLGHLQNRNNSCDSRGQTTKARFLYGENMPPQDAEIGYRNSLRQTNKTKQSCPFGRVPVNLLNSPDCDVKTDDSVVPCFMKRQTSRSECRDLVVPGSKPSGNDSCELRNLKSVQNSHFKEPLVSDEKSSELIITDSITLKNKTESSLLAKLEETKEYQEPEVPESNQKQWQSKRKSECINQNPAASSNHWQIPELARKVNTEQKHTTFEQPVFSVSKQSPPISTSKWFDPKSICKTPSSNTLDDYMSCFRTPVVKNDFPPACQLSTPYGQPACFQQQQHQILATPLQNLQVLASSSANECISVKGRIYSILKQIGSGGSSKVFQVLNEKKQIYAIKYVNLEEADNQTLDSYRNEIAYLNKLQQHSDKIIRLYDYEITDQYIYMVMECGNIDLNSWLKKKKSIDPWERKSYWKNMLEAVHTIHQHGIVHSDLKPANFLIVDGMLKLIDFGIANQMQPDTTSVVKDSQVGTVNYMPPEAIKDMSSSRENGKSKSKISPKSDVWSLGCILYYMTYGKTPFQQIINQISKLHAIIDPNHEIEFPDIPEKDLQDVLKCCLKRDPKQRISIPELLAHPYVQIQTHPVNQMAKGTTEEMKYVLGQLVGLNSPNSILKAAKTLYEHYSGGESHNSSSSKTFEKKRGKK
In words: TTK kinase activity assay (ADP-Glo). The format is biochemical. Conditions: initial concentration 1000 nM, 1:3, 10 dilutions; read-out: IC50 (nM), TTK kinase inhibiting activity. The method, then:
TTK kinase was purchased from Invitrogen, Cat.#: PV3792.
• (1) 1×buffer was prepared by diluting 5×buffer into 1×buffer with ddH2O, and adding 0.05 mM DTT. • (2) The compounds of the present invention were prepared at an initial concentration of 1000 nM, and diluted by 1:3 to obtain 10 serial dilutions. • (3) The diluted compounds of the present invention were added to a 384-well plate (purchased from Greiner, product number 784075) by an Echo 550 pipetting workstation, and centrifuged at 1000 g for 1 min. • (3) A 2×TTK enzyme solution was prepared with the 1×buffer. Then, 2.5 µL of the 2× enzyme solution was added to each well, centrifuged at 1000 g for 30 s, and left at room temperature for 10 min. • (4) A 2×MBP substrate/ATP mixture was prepared with the 1×buffer.

Series [2] is described as follows: Metabolic stability in liver microsomes. Type of series: in vitro ADME, human. The following applies: human, human liver microsomes; 0.5 µM test substance, 0.5 mg/mL microsomes, NADPH and UDPGA, 37° C.; read-out: T½(min), stability in human liver microsomes. The procedure: Liver microsomes (purchased from Reed Liver Disease Research (Shanghai) Co., Ltd., product: human liver microsomes (NJT)); NADPH (purchased from Roche, Lot: 40939); UDPGA; the compounds of the present invention (test substances).
• (1) A mixed working solution of testosterone (0.5 µM) and 7-hydroxycoumarin (0.5 µM) was prepared. • (2) A mixed solution of NADPH (1 mM) and UDPGA (1 mM) was prepared, and prewarmed at 37° C. in a water bath shaker before use. • (3) Liver microsomes were thawed and diluted with a buffer. • (4) A preparation of a test substance (0.5 µM) and a solution of liver microsomes (0.5 mg/mL) were added to each well of an incubation plate. • (5) Three experimental groups were set and samples were added. Test group: the test substance was incubated with liver microsomes for 0 min, 30 min, 60 min, and 120 min in the presence of the coenzyme NADPH and UDPGA; Positive control group: testosterone (0.5 µM) and 7-hydroxycoumarin (0.5 µM) were incubated with microsomes for 0 min and 120 min in the presence of the coenzyme NADPH and UDPGA; Negative control group: the test substance was incubated with microsomes for 0 and 120 min without any coenzyme. • (6) All samples were incubated at 37° C., and pre-cooled methanol was added at each termination time (0, 15, 30, 45, 60 min, 120 min) to terminate the reaction, and the time was recorded. • (7) All samples were mixed well and centrifuged at 4000 rpm for 10 min. The supernatant was taken and measured by LC-MS/MS for the amount of the test substance remaining in the samples. Data analysis was carried out as follows: T½=0.693 /k, Clint = (0.693/T½) × (1 /(microsomal protein) × Scaling Factors), Note: k is the slope of the logarithm of the remaining amounts of compound versus time.
(In general: Liver microsomes are vesicles of endoplasmic reticulum, rich in cytochrome P450 enzymes.)

The nature of series [3]: Pharmacokinetic assay in ICR mice (i.v. and p.o.). The format is in vivo. Conditions: mouse, plasma, male ICR mice; for half-life: read-out: T½ (converted); for bioavailability: po 10 mg/kg vs iv 1 mg/kg. In a few lines:
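Fasted male ICR mice (18-22 g) dosed at 1 mg/kg i.v. or 10 mg/kg p.o. in 5% DMSO/95% 30% HP-β-CD, three mice per time point. Submandibular plasma sampled up to 24 h, assayed by LC/MS/MS.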

Series [4] has as its target T2, DNA-PK kinase (Homo sapiens, UniProt P78527).
T2 construct: purchased Promega V4107
Description: Inhibition assay of DNA-PK kinase (Promega kit, ADP-Glo chemiluminescence). Type of series: biochemical. The following applies: 50 µM ATP, 37° C., 60 min; read-out: IC50 (nM), inhibitory activity on DNA-PK kinase. In short, it runs like this:
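Compounds incubated with DNA-PK at 37° C for 60 min; reaction stopped with ADP-Glo reagent (40 min, RT), then kinase detection reagent (30 min, RT). ADP formed read by luminescence against an ADP standard curve.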
(In general: ADP-Glo turns the ADP formed in a reaction into a luminescent signal.)

Molecules are shown by their SMILES. Where two headings read alike, the source gives them in different places.

In general, IC50 refers to the concentration at which inhibition is half-maximal. One may read the AUC as the area under the concentration-time curve, a measure of exposure. Low values mean less exposure, high ones more exposure. One may read the Cmax as the maximum level reached in the sampled fluid or tissue.

With `Cc1cc(C#N)ccc1Nc1ncc2c(n1)n(C1CCOCC1)c(=O)n2C` [Compound 5, 3-Methyl-4-((7-methyl-8-oxo-9-(tetrahydro-2H-pyran-4-yl)-8,9-dihydro-7H-purin-2-yl)amino)benzonitrile], in series [1], the half-inhibitory concentration (IC50) came out at 1720 nM. Further, the half-life at 0.5 µM in series [2] is more than 120 min. Besides, in series [3] (iv, 1 mg/kg), the AUC was determined as 234 ng·h/mL and the half-life was 20 min. The bioavailability in series [3] was found to be 99.4%. Moreover, in series [3] (po, 10 mg/kg), the AUC is 2270 ng·h/mL, the Cmax amounted to 835 ng/mL and the half-life was 193 min.
On to `Cc1cc(C(N)=O)c(F)cc1Nc1ncc2c(n1)n(C1CCOCC1)c(=O)n2C` [Compound 24, 2-Fluoro-5-methyl-4-((7-methyl-8-oxo-9-(tetrahydro-2H-pyran-4-yl)-8,9-dihydro-7H-purin-2-yl)amino)benzamide], for which the concentration for half-maximal inhibition (IC50) in series [1] worked out at 4220 nM. Also, the IC50 in series [4] came out at 0.56 nM. Besides, the half-life at 0.5 µM in series [2] is more than 120 min. Besides, in series [3] (iv, 1 mg/kg), the AUC was determined as 466 ng·h/mL and the half-life was 57 min. Besides, the bioavailability in series [3] came to 135%. Besides, in series [3] (po, 10 mg/kg), the AUC amounted to 6280 ng·h/mL, the Cmax stood at 2500 ng/mL and the half-life was 224 min.
On to `CNC(=O)c1ccc(Nc2ncc3c(n2)n(C2CCOCC2)c(=O)n3C)c(C)c1` [Compound 27, N,3-Dimethyl-4-((7-methyl-8-oxo-9-(tetrahydro-2H-pyran-4-yl)-8,9-dihydro-7H-purin-2-yl)amino)benzamide], for which the IC50 in series [1] was determined as 428 nM. Also, the concentration for half-maximal inhibition (IC50) in series [4] was 4.36 nM. The half-life at 0.5 µM in series [2] was more than 120 min. Besides, in series [3] (iv, 1 mg/kg), the AUC came out at 679 ng·h/mL and the half-life is 88.8 min. In addition, the bioavailability in series [3] is 213%. In series [3] (po, 10 mg/kg), the AUC turned out to be 14600 ng·h/mL, the peak level (Cmax) was 5450 ng/mL and the half-life is 130 min.
For the compound `Cc1cc(C(N)=O)ncc1Nc1ncc2c(n1)n(C1CCOCC1)c(=O)n2C` [Compound 18, 4-Methyl-5-((7-methyl-8-oxo-9-(tetrahydro-2H-pyran-4-yl)-8,9-dihydro-7H-purin-2-yl)amino)picolinamide], the IC50 in series [1] was 387 nM. The IC50 in series [4] was found to be 2.1 nM. The half-life at 0.5 µM in series [2] was more than 120 min. Moreover, in series [3] (iv, 1 mg/kg), the area under the curve (AUC) came out at 171 ng·h/mL and the half-life is 46.3 min. The bioavailability in series [3] turned out to be 78.4%. In series [3] (po, 10 mg/kg), the AUC amounted to 1360 ng·h/mL, the highest concentration (Cmax) came to 312 ng/mL and the half-life is 184 min.
For the compound `Cc1cc(C(N)=O)c(F)cc1Nc1ncc2c(n1)n([C@H]1CC[C@@H](C#N)CC1)c(=O)n2C` [Compound 77, 4-((9-(cis-4-cyanocyclohexyl)-7-methyl-8-oxo-8,9-dihydro-7H-purin-2-yl)amino)-2-fluoro-5-methylbenzamide], the IC50 in series [4] was determined as 4.67 nM. The half-life at 0.5 µM in series [2] is more than 120 min. Also, in series [3] (iv, 1 mg/kg), the AUC was 545 ng·h/mL and the half-life is 93 min. For the same compound, the bioavailability in series [3] was 108%. Besides, in series [3] (po, 10 mg/kg), the AUC was 5970 ng·h/mL, the Cmax amounted to 1750 ng/mL and the half-life was 194 min.
Regarding `Cc1cc(C(N)=O)ccc1Nc1ncc2c(n1)n(C1CCOCC1)c(=O)n2C` [Compound 2, 3-Methyl-4-((7-methyl-8-oxo-9-(tetrahydro-2H-pyran-4-yl)-8,9-dihydro-7H-purin-2-yl)amino)benzamide], in series [1], the 50% inhibitory concentration (IC50) stood at 275 nM. In series [2], the half-life at 0.5 µM was more than 120 min. Further, in series [3] (iv, 1 mg/kg), the AUC stood at 265 ng·h/mL and the half-life is 52.2 min. The bioavailability in series [3] was 38.2%. Also, in series [3] (po, 10 mg/kg), the AUC came out at 1040 ng·h/mL, the highest level (Cmax) was 449 ng/mL and the half-life is 110 min.
Regarding `Cc1cc(C(N)=O)c(F)cc1Nc1ncc2c(n1)n([C@@H]1CCOC1)c(=O)n2C` [Compound 76, (R)-2-fluoro-5-methyl-4-((7-methyl-8-oxo-9-(tetrahydrofuran-3-yl)-8,9-dihydro-7H-purin-2-yl)amino)benzamiderile], the IC50 in series [4] was found to be 1.96 nM. Moreover, the half-life at 0.5 µM in series [2] was more than 120 min. Further, in series [3] (iv, 1 mg/kg), the AUC is 120 ng·h/mL and the half-life was 18 min. The bioavailability in series [3] amounted to 104%. For the same compound, in series [3] (po, 10 mg/kg), the AUC stood at 1360 ng·h/mL, the highest concentration (Cmax) is 1570 ng/mL and the half-life is 55.8 min.
For `Cc1cc(C(N)=O)c(F)cc1Nc1ncc2c(n1)n([C@H]1CC[C@H](C#N)CC1)c(=O)n2C` [Compound 79, 4-((9-(trans-4-cyanocyclohexyl)-7-methyl-8-oxo-8,9-dihydro-7H-purin-2-yl)amino)-2-fluoro-5-methylbenzamide], in series [4], the IC50 came out at 1.86 nM. In addition, the half-life at 0.5 µM in series [2] was more than 120 min. In series [3] (iv, 1 mg/kg), the AUC stood at 482 ng·h/mL and the half-life is 37.8 min. Besides, in series [3], the bioavailability was 100%. Further, in series [3] (po, 10 mg/kg), the area under the curve (AUC) stood at 4440 ng·h/mL, the highest level (Cmax) was 2490 ng/mL and the half-life was 129 min.
